Publication PMC6855250 (Nature, 2019)

Molecular target: SidJ (Legionella pneumophila, UniProt Q5ZTK6)
Experiment: biochemical

SidJ, sequence (Q5ZTK6 whole entry, looked up): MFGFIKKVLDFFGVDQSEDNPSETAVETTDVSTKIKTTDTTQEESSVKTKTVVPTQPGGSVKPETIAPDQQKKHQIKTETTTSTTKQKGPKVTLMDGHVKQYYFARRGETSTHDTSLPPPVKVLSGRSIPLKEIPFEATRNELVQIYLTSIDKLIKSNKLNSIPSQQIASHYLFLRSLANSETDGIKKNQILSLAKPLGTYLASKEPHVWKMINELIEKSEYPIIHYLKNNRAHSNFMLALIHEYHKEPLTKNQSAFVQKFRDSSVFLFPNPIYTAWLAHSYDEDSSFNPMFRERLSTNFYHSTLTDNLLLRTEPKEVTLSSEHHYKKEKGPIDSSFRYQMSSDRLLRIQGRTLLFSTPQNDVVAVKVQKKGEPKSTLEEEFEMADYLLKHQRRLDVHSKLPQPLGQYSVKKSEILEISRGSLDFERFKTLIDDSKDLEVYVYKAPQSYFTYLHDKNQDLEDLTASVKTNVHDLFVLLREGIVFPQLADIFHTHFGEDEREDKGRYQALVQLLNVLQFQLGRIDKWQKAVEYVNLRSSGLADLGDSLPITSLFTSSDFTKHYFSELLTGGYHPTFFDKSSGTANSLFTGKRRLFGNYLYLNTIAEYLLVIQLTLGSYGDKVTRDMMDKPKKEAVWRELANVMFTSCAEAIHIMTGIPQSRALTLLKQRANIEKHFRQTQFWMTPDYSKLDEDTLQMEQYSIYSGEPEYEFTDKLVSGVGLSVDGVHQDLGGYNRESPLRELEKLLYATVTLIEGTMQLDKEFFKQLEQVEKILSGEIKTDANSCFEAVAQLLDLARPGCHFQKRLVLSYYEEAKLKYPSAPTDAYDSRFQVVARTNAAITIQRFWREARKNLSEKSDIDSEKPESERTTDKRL

Nc1ncnc2c1ncn2[C@@H]1O[C@H](COP(=O)(O)OP(=O)(O)OP(=O)(O)O)[C@@H](O)[C@H]1O [ATP]
Kd: 1450 nM
